Legend:
[1] = Solubility of biocidal active substances in various solvents, by stepwise concentration of a 10 wt% starting solution at 25°C; type: physicochemical
Method: Die nachfolgenden Beispiele dienen der näheren Erläuterung der Erfindung. Alle Prozentangaben sind Gewichtsprozente, sofern nicht anders angegeben. Tabelle 1: Löslichkeiten von bioziden Wirksubstanzen in verschiedenen Lösemitteln
Die Löslichkeiten wurden durch schrittweises Aufkonzentrieren einer Startlösung bei 10 Gew.-% bei 25°C ermittelt. Tabelle 2: Lagerstabilität von bioziden Wirksubstanzen in verschiedenen Lösemitteln bei -5°C, +20°C und +50°C bei 14 Tagen Lagerdauer

[2] = in Tierversuchen; cited from earlier work
[3] = solvent N-Methylpyrrolidon (NMP), weight percent
[4] = solvent Dipropylenglykol (DPG), weight percent
[5] = solvent Tetraethylenglykoldimethylether (TEGDME), weight percent
[6] = solvent TEGDME / DPG 1:2,7, weight percent

## O=[N+]([O-])C(Br)(CO)CO [1 (V), 2-Bromo-2-nitro-1,3-propandiol]
[1]; [3]
  Löslichkeit [25°C]: 51%

## O=[N+]([O-])C(Br)(CO)CO [4(V), 2-Bromo-2-nitro-1,3-propandiol]
[1]; [4]
  Löslichkeit [25°C]: 26%

## CCCCNC(=O)OCC#CI [5(V), 3-Jod-2-propinyl-butylcarbamat]
[1]; [3]
  Löslichkeit [25°C]: 45%

## CCCCNC(=O)OCC#CI [8(V), 3-Jod-2-propinyl-butylcarbamat]
[1]; [4]
  Löslichkeit [25°C]: 34%

## N#CCCC(Br)(C#N)CBr (stereo not shown) [13(V), 1,2-Dibromo-2,4-dicyanobutan]
[1]; [3]
  Löslichkeit [25°C]: 39%

## N#CCCC(Br)(C#N)CBr (stereo not shown) [16(V), 1,2-Dibromo-2,4-dicyanobutan]
[1]; [4]
  Löslichkeit [25°C]: 21%

## O=[N+]([O-])C(Br)(CO)CO [Beispiel 2, 2-Bromo-2-nitro-1,3-propandiol]
[1]; [5]
  Löslichkeit [25°C]: 56%

## O=[N+]([O-])C(Br)(CO)CO [Beispiel 3, 2-Bromo-2-nitro-1,3-propandiol]
[1]; [6]
  Löslichkeit [25°C]: 39%

## CCCCNC(=O)OCC#CI [Beispiel 6, 3-Jod-2-propinyl-butylcarbamat]
[1]; [5]
  Löslichkeit [25°C]: 52%

## CCCCNC(=O)OCC#CI [Beispiel 7, 3-Jod-2-propinyl-butylcarbamat]
[1]; [6]
  Löslichkeit [25°C]: 50%

## N#CCCC(Br)(C#N)CBr (stereo not shown) [Beispiel 14, 1,2-Dibromo-2,4-dicyanobutan]
[1]; [5]
  Löslichkeit [25°C]: 47%

## N#CCCC(Br)(C#N)CBr (stereo not shown) [Beispiel 15, 1,2-Dibromo-2,4-dicyanobutan]
[1]; [6]
  Löslichkeit [25°C]: 34%

## CN1CCCC1=O [N-Methyl-2-Pyrrolidon]
[2]
  fruchtschädigende Wirkung: fruchtschädigende Wirkung
